Results taken from EP4775199A1, “DRUG-RELEASING ELECTROACTIVE IMPLANT FOR NERVOUS SYSTEM REPAIR” (priority 2023, dated 2025).
Entries after “also recorded” stand apart in the source; their conditions may differ.

Key:
[1] = Systemic (subcutaneous) administration of SB743921 after spinal cord transection; type: in vivo, rats; details: rat, in vivo, every 12 hours, starting 12 hours post-injury, at 7 DPI
Method: (§1) A spinal transection model in adult male Wistar rats was used. Experimental protocols followed European Commission regulations and Spanish legislation for the protection of experimental animals (86/609/EEC, 32/2007, and 223/1988) and were approved by the Ethical Committee for Animal Experimentation of the Hospital Nacional de Parapléjicos of Toledo, Spain. In summary, animals were anesthetized by intraperitoneal (IP) injection of pentobarbital (50 mg/kg) and xylazine (10 mg/kg), providing supplemental doses of 30% one and a half hours later as needed. There were also administered atropine (0.04 mg/kg, IP) to decrease bronchial secretions, marbofloxacin as a prophylactic antibiotic, and ophthalmic ointment to prevent corneal abrasion. A dorsal laminectomy of the T9-T10 vertebrae, under which the T10 and T11 spinal segments are located, respectively, was performed. A small diagonal cut was made in the dura mater, followed by complete spinal cord transection. After a second more rostral cut, the tissue in between was extirpated leaving a neural tissue gap of about 2 mm (Figure 1A). Bleeding was controlled by introducing a fragment of Espongostan® into the cavity, which was removed once hemostasis was achieved. Durorrhaphy was then performed with simple stitches using 10-0 thread; and finally, the muscles and skin were sutured in layers.
(§2) The same spinal cord transection model described in Example 1 was used, in other words, a 2 mm neural gap was created and the dura mater was sutured without other treatments at the injured site. The drug was dissolved in water at 0.8 mg/ml and administered subcutaneously (SC).
(§3) Neural damage, Fibrosis development, inflammation, and repair responses (axonal growth, glial migration, blood vessel growth) were evaluated by means of immunohistochemical staining for axons (neurofilament, NF, Sigma-Aldrich N0142; serotonin, ImmunoSolution IG1112; tyrosine hydroxylase, TH, Sigma AB152), neuronal somas and their dendrites (microtubule-associated protein, MAP2, Sigma M1406), astroglia (glial fibrillary acidic protein, GFAP, BD Biosciences 556327); pericytes and fibroblasts (PDGFR, Abcam AB32570; type IV collagen, Meridian, T40251R), macrophages and microglia (ED1; Chemicon MAB 1435; isolectin B4, Fisher I21411), and endothelial cells (RECA1, Bio-Rad, MCA970R).

[2] = test system: rats with spinal cord transection; assay: as above; type: in vivo; details: for Reduction of fibrosis: 7 DPI
Method: as §1, §2, §3

meningeal fibroblasts = type: cell-based, rat; details: 10 nM SB743921, 48 hours; control almost 90 %
Method: Meningeal fibroblasts were cultured from adult rat dura mater and arachnoid mater in the presence of fetal bovine serum following published procedures (Collazos-Castro JE, Polo JL, Hernández-Labrado […]. Bioelectrochemical Control of Neural Cell Development on Conducting Polymers. Biomaterials 2010;31:9244-9255). […] The behavior of living cells was studied by means of videomicroscopy, capturing images every 30 minutes for 48 hours. In separate cultures, cell proliferation was also studied by means of the incorporation of 5-ethynyl-2'-deoxyuridine (EdU).

[3] = test system: rats with spinal cord transection
[4] = regimen a: 1 mg/kg subcutaneous, one dose every 24 hours for 2, 4, or 6 days, starting 12 hours post-injury
[5] = regimen b: 1 mg/kg SC, 5 doses, every 12 hours, starting 12 hours post-injury
[6] = regimen c: 1 mg/kg SC, 4 doses, every 12 hours, starting 24 hours post-injury
[7] = regimen e: 1,125 mg/kg SC, 4 doses, every 12 hours, starting 12 hours post-injury

For `Cc1ccc(C(=O)N(CCCN)[C@@H](c2oc3cc(Cl)ccc3c(=O)c2Cc2ccccc2)C(C)C)cc1` [SB743921], the mortality at 168 h ([1]; 1.125 mg/kg, regimen e: 1,125 mg/kg SC, 4 doses) was greater than 90%, the mortality at 168 h ([1]; regimen b: 1 mg/kg SC, 5 doses) was greater than 50% and the neural tissue gap ([2]; Figure 3, 7 DPI, GFAP and MAP2 labeling, initial gap 2 mm) was “less than 500 µm”. The “fibrosis (PDGFR)” value ([2]; Figure 3, 7 DPI, regimen not stated) was “partial reduction”, the Neural tissue damage ([2]; rat, in vivo, sc, 1 mg/kg) was “Severe spinal atrophy with 6 doses” and the Systemic adverse effects [2, 4] was “No detected in the period of survival (7 days post-injury, DPI)”. The Reduction of fibrosis [2, 4] was “Slight reduction from the 4th dose”, the “signs of neurotoxicity in the perilesional tissue” value ([2]; regimen b) was “no obvious signs of neurotoxicity” and the Neural tissue damage [2, 5] was “Mild microhemorrhages”. The Systemic adverse effects [2, 5] was “Diarrhea, peritonitis”, the Reduction of fibrosis [2, 5] was “partially reduced fibrosis; also recorded: Partial” and the “animals that had died 7 DPI” value ([2]; regimen b, signs of enterocolitis and bacterial translocation or intestinal perforation) was “Four of the seven”. The Neural tissue damage [2, 6] was “Increases due to inflammation”, the Reduction of fibrosis [2, 6] was “Inconsistent” and the Reduction of fibrosis ([2]; regimen d: 1 mg/kg SC, 4 doses, every 12 hours, starting 12 hours post-injury) was “Inconsistent”. For the same molecule, the Neural tissue damage [2, 7] was “Inconsistent”, the Systemic adverse effects [2, 7] was “Diarrhea, peritonitis” and the Reduction of fibrosis [2, 7] was “Inconsistent”. The “cells that incorporated EdU” value (meningeal fibroblasts) was 20%.

For `Cc1ccc(NC(=O)c2ccc(CN3CCN(C)CC3)cc2)cc1Nc1nccc(-c2cccnc2)n1` [imatinib], the “safety (death, adverse effects)” value ([3]; imatinib regimen a: 4 doses of 5 mg/kg SC, every 12 hours, starting 12 hours post-injury, with implant and ES) was “completely safe”, the “inflammatory cells in the perilesional spinal segments” value ([3]; imatinib regimen a: 4 doses of 5 mg/kg SC, every 12 hours, with implant and ES) was “reduced presence of inflammatory cells” and the “PDGFR+ residual fibrotic tissue in the injury site” value ([3]; imatinib regimen b: regimen a and additionally 5 mg/kg everyday until the end of electrostimulation, with implant and ES) was “practically eliminated”. For the same molecule, the “cases with separation of the stumps of the spinal cord” value ([3]; imatinib regimen b, with implant and ES) was “two thirds”, the “distance between the astrocyte front of the stumps” value ([3]; imatinib regimen b, with implant and ES, 14 DPI, remaining one-third of the animals) was “about 400 µm” and the “axonal extension and branching” value ([3]; implant with ES combined with subcutaneous imatinib versus implant with ES alone) was “significantly increasing axonal extension and branching”.
